The results in this text go back to patent US12312599B2, “Methods, compositions, and kits for producing beige adipocytes and treating metabolic disorders” (MaineHealth, priority 2018, dated 2025).

The assay relates to iPSCs. Description: Mesoderm induction of iPSCs: FOXF1 and IRX3 expression. The conditions noted are these: SB added to in-house mesoderm induction medium. It is filed as cell-based, human. As for the experimental part:
PSCs were cultured in monolayer on hESC-qualified Matrigel-coated plates (Corning) and expanded in NutriStem hPSC XF Medium (Stemgent) and passaged with ReLeSR passaging reagent (STEMCELL Technologies). For mesoderm induction (Day 0), PSC colonies was dissociated with TrypLE cell dissociation reagent (Thermofisher) and plated on Matrigel coated plates in NutriStem medium containing 10 μM Y-27632 Rho kinase inhibitor (Calbiochem). The following day (Day 1), NutriStem medium was replaced with STEMdiff Mesoderm Induction Medium (MIM) (STEMCELL Technologies) and changed each day until day 5.
Note: Only use Y-27632 stock solutions that have been resuspended in DMSO. […] Conduct Mesoderm induction of iPSC in a laminar flow cabinet. • 3. Expand cells in NutriStem hPSC XF Medium overnight and change 100% of the medium without Y-27632 every 24 hours in a laminar flow cabinet for cell culture. When changing media, tilt plate up and allow media to pool at the bottom of wells. Aspirate the pooled medium without touching the surface of the plate. Replace with medium warmed to room temperature by pipetting 2 ml down the side of the wells. Cell Passaging • 1. Expand cell colonies until they have reached 70-80% confluence in high-density areas of the wells. High-density accumulation can occur along the edges of the well as well as the middle. Cells permitted to reach high density will lose their potential for differentiation after multiple passages. • 2. Prior to cell passage, warm cell wash buffer and NutriStem hPSC XF Medium to room temperature. Conduct cell passage in a laminar flow cabinet. • 3. Aspirate NutriStem hPSC XF Medium from wells with vacuum aspirator and wash with PBS without calcium or magnesium. Remove PBS and add 1 ml of ReLeSR reagent to side of well. Agitate plate to allow ReLeSR reagent to spread evenly on the surface. • 4. Aspirate ReLeSR reagent with vacuum aspirator after 30 seconds, which will leave behind a thin film of liquid. Incubate plate at 37° C. for 5-8 minutes undisturbed. • 5. Add fresh NutriStem hPSC XF Medium to wells and gently remove the cell colonies from the plate. Check that most cells have been dislodged from the plate surface with a light microscope. If not, rewash with more medium as needed. • 6. Transfer cell colony suspension in NutriStem hPSC XF Medium to Matrigel coated culture plates for further expansion (see Cell plating and culture above). Generation of iPSC Derived MSCs Mesoderm Induction of iPSC • 1. When iPSCs have reached 70-80% confluence, they will need to be passaged as single cells rather than colonies prior to mesoderm induction (day 0). • 2. Prepare for passage by warming cell wash buffer and NutriStem hPSC XF medium to room temperature and add Y-27632 Rho kinase inhibitor to medium at a final concentration of 10 μM. […]

For the molecule `NC(=O)c1ccc(-c2nc(-c3ccc4c(c3)OCO4)c(-c3ccccn3)[nH]2)cc1` [SB, SB431542], the FOXF1 expression entry is given as “loss” and the IRX3 expression entry is “increased expression”.
